Experimental data reported in PubChem BioAssay AID180 (DTP/NCI, 2004).
“And” between values parts separate entries of the source, which are not always exact repeats. Equal entries are not always repeated.

Tested on: BDF1 mice, Adenocarcinoma 755 s.c., tumor weight T/C
Experiment: NCI In Vivo Anticancer Drug Screen. Data for tumor model Adenocarcinoma 755 (subcutaneous) in B6D2F1 (BDF1) mice
Conditions: endpoint: mean tumor weight, higher = larger tumour
Summary of the method: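 Readout: T/C, i.e. treated-group measurement over vehicle-control measurement. Endpoint is survival or tumor size in tumor-bearing mice given compound.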

[1] = dose: 31.0 mg/kg/injection, schedule: Q01DX011 (ip), vehicle: methylcellulose (MC)
[2] = dose: 125.0 mg/kg/injection, schedule: Q01DX011 (ip), vehicle: methylcellulose (MC)
[3] = dose: 50.0 mg/kg/injection, schedule: Q01DX011 (ip), vehicle: methylcellulose (MC)
[4] = dose: 50.0 mg/kg/injection, schedule: Q01DX011 (ip), vehicle: other
[5] = dose: 100.0 mg/kg/injection, schedule: Q01DX011 (ip), vehicle: methylcellulose (MC)
[6] = dose: 100.0 mg/kg/injection, schedule: Q01DX011 (ip), vehicle: other
[7] = dose: 25.0 mg/kg/injection, schedule: Q01DX011 (ip), vehicle: methylcellulose (MC)
[8] = dose: 6.0 mg/kg/injection, schedule: Q01DX011 (ip), vehicle: carboxymethylcellulose (CMC)
[9] = dose: 12.0 mg/kg/injection, schedule: Q01DX011 (ip), vehicle: carboxymethylcellulose (CMC)
[10] = dose: 25.0 mg/kg/injection, schedule: Q01DX011 (sc), vehicle: steriod suspending solution

Compound: O=P(N1CCCCC1)(N1CC1)N1CC1
- T/C (dose: 1.8 mg/kg/injection, schedule: Q01DX011 (ip), vehicle: carboxymethylcellulose (CMC)): 68 % of control
- T/C (dose: 1.8 mg/kg/injection, schedule: Q01DX011 (ip), vehicle: saline): 44 % of control
- T/C (dose: 3.5 mg/kg/injection, schedule: Q01DX011 (ip), vehicle: carboxymethylcellulose (CMC)): 92 % of control
- T/C (dose: 3.5 mg/kg/injection, schedule: Q01DX011 (ip), vehicle: saline): 38 % of control
- T/C (dose: 7.0 mg/kg/injection, schedule: Q01DX011 (ip), vehicle: saline): 15 % of control
- T/C (dose: 14.0 mg/kg/injection, schedule: Q01DX011 (ip), vehicle: carboxymethylcellulose (CMC)): 45 % of control

Compound: CN(C)c1nc(N)c2ncn(C3OC(CO)C(O)C3O)c2n1 (centres undefined)
- T/C [1]: 80 % of control
- T/C [2]: 74 % of control

Compound: Nc1ncnc2c1nc(Br)n2C1CC(O)C(CO)O1 (centres undefined)
- T/C (dose: 30.0 mg/kg/injection, schedule: Q01DX011 (ip), vehicle: carboxymethylcellulose (CMC)): 89 % of control
- T/C (dose: 60.0 mg/kg/injection, schedule: Q01DX011 (ip), vehicle: carboxymethylcellulose (CMC)): 89 % of control
- T/C (dose: 120.0 mg/kg/injection, schedule: Q01DX011 (ip), vehicle: carboxymethylcellulose (CMC)): 75 % of control
- T/C (dose: 240.0 mg/kg/injection, schedule: Q01DX011 (ip), vehicle: carboxymethylcellulose (CMC)): 123 % of control

Compound: O=C(Nc1ccc2c(O)c(N=Nc3ccccc3)c(S(=O)(=O)O)cc2c1)Nc1ccc2c(O)c(N=Nc3ccc4cc(S(=O)(=O)O)ccc4c3)c(S(=O)(=O)O)cc2c1
- T/C (dose: 45.0 mg/kg/injection, schedule: Q01DX011 (ip), vehicle: carboxymethylcellulose (CMC)): 47 % of control

Compound: CC(=O)Nc1c(Cl)c(Cl)c2c(c1Cl)C(=O)c1cc(Cl)ccc1-2
- T/C [3]: 57 % of control
- T/C [4]: 100 % of control and 112 % of control
- T/C [5]: 65 % of control
- T/C [6]: 65 % of control
- T/C (dose: 400.0 mg/kg/injection, schedule: Q01DX011 (ip), vehicle: other): 41 % of control and 64 % of control and 66 % of control
- T/C (dose: 800.0 mg/kg/injection, schedule: Q01DX011 (ip), vehicle: other): 59 % of control

Compound: c1cc(CSc2ncnc3nc[nH]c23)ccn1
- T/C (dose: 3.1 mg/kg/injection, schedule: Q01DX011 (ip), vehicle: methylcellulose (MC)): 72 % of control
- T/C (dose: 6.25 mg/kg/injection, schedule: Q01DX011 (ip), vehicle: methylcellulose (MC)): 39 % of control
- T/C (dose: 12.5 mg/kg/injection, schedule: Q01DX011 (ip), vehicle: methylcellulose (MC)): 29 % of control
- T/C [7]: 16 % of control and 25 % of control
- T/C [3]: 12 % of control
- T/C [5]: 7 % of control
- T/C (dose: 200.0 mg/kg/injection, schedule: Q01DX011 (ip), vehicle: methylcellulose (MC)): 2 % of control

Compound: OCCN1CCN(CC/C=C2/c3ccccc3Sc3ccc(Cl)cc32)CC1
- T/C (dose: 2.5 mg/kg/injection, schedule: Q01DX011 (ip), vehicle: methylcellulose (MC)): 90 % of control and 88 % of control
- T/C (dose: 5.0 mg/kg/injection, schedule: Q01DX011 (ip), vehicle: methylcellulose (MC)): 40 % of control and 42 % of control
- T/C (dose: 10.0 mg/kg/injection, schedule: Q01DX011 (ip), vehicle: methylcellulose (MC)): 32 % of control
- T/C (dose: 20.0 mg/kg/injection, schedule: Q01DX011 (ip), vehicle: methylcellulose (MC)): 17 % of control

Compound: N[C@@H](Cc1ccc(N(CCCl)CCCl)cc1)C(=O)O
- T/C (dose: 0.31 mg/kg/injection, schedule: Q01DX011 (ip), vehicle: carboxymethylcellulose (CMC)): 66 % of control
- T/C (dose: 0.62 mg/kg/injection, schedule: Q01DX011 (ip), vehicle: carboxymethylcellulose (CMC)): 101 % of control
- T/C (dose: 1.25 mg/kg/injection, schedule: Q01DX011 (ip), vehicle: carboxymethylcellulose (CMC)): 59 % of control
- T/C (dose: 2.5 mg/kg/injection, schedule: Q01DX011 (ip), vehicle: carboxymethylcellulose (CMC)): 29 % of control

Compound: O=C(Nc1ncnc2c1ncn2C1CC(OC(=O)c2ccc([N+](=O)[O-])cc2)C(COC(=O)c2ccc([N+](=O)[O-])cc2)O1)c1ccccc1 (centres undefined)
- T/C (dose: 16.7 mg/kg/injection, schedule: Q01DX011 (ip), vehicle: methylcellulose (MC)): 104 % of control
- T/C [3]: 102 % of control
- T/C (dose: 150.0 mg/kg/injection, schedule: Q01DX011 (ip), vehicle: methylcellulose (MC)): 62 % of control

Compound: Nc1ncnc2c1ncn2CCCl
- T/C (dose: 37.5 mg/kg/injection, schedule: Q01DX011 (ip), vehicle: methylcellulose (MC)): 84 % of control
- T/C (dose: 75.0 mg/kg/injection, schedule: Q01DX011 (ip), vehicle: methylcellulose (MC)): 31 % of control

Compound: C1CN1P1(N2CC2)=NP(N2CC2)(N2CC2)=NP(N2CC2)(N2CC2)=N1
- T/C (dose: 3.0 mg/kg/injection, schedule: Q01DX011 (ip), vehicle: carboxymethylcellulose (CMC)): 60 % of control
- T/C [8]: 43 % of control
- T/C (dose: 6.0 mg/kg/injection, schedule: Q01DX011 (ip), vehicle: methylcellulose (MC)): 17 % of control and 21 % of control
- T/C [9]: 9 % of control

Compound: O=S(=O)(NCc1ccccn1)c1ncnc2nc[nH]c12
- T/C [9]: 119 % of control
- T/C (dose: 25.0 mg/kg/injection, schedule: Q01DX011 (ip), vehicle: carboxymethylcellulose (CMC)): 101 % of control
- T/C (dose: 50.0 mg/kg/injection, schedule: Q01DX011 (ip), vehicle: carboxymethylcellulose (CMC)): 99 % of control

Compound: C=C(Br)CN(C)CCO
- T/C [4]: 85 % of control
- T/C [6]: 76 % of control
- T/C (dose: 200.0 mg/kg/injection, schedule: Q01DX011 (ip), vehicle: other): 53 % of control

Compound: O=P(N1CCCC1)(N1CC1)N1CC1
- T/C (dose: 0.2 mg/kg/injection, schedule: Q01DX011 (ip), vehicle: saline): 94 % of control and 75 % of control
- T/C (dose: 0.25 mg/kg/injection, schedule: Q01DX011 (ip), vehicle: carboxymethylcellulose (CMC)): 110 % of control
- T/C (dose: 0.5 mg/kg/injection, schedule: Q01DX011 (ip), vehicle: saline): 54 % of control and 79 % of control
- T/C (dose: 1.0 mg/kg/injection, schedule: Q01DX011 (ip), vehicle: carboxymethylcellulose (CMC)): 42 % of control
- T/C (dose: 1.0 mg/kg/injection, schedule: Q01DX011 (ip), vehicle: saline): 8 % of control and 21 % of control
- T/C (dose: 2.0 mg/kg/injection, schedule: Q01DX011 (ip), vehicle: carboxymethylcellulose (CMC)): 46 % of control
- T/C (dose: 2.0 mg/kg/injection, schedule: Q01DX011 (ip), vehicle: saline): 3 % of control
- T/C (dose: 4.0 mg/kg/injection, schedule: Q01DX011 (ip), vehicle: carboxymethylcellulose (CMC)): 23 % of control
- T/C [8]: 8 % of control
- T/C (dose: 8.0 mg/kg/injection, schedule: Q01DX011 (ip), vehicle: carboxymethylcellulose (CMC)): 11 % of control
- T/C (dose: 12.0 mg/kg/injection, schedule: Q01DX011 (ip), vehicle: saline): 3 % of control

Compound: CS(=O)(=O)OCC1OC(O)CC1O (centres undefined)
- T/C (dose: 25.0 mg/kg/injection, schedule: Q01DX011 (ip), vehicle: saline): 113 % of control
- T/C (dose: 75.0 mg/kg/injection, schedule: Q01DX011 (ip), vehicle: saline): 153 % of control

Compound: CCCCNc1nc(SCc2ccc(Cl)cc2Cl)ncc1C
- T/C (dose: 15.0 mg/kg/injection, schedule: Q01DX011 (ip), vehicle: methylcellulose (MC)): 78 % of control
- T/C [1]: 91 % of control
- T/C (dose: 62.0 mg/kg/injection, schedule: Q01DX011 (ip), vehicle: methylcellulose (MC)): 84 % of control
- T/C [2]: 72 % of control
- T/C (dose: 250.0 mg/kg/injection, schedule: Q01DX011 (ip), vehicle: methylcellulose (MC)): 60 % of control

Compound: CC12CCC(=O)C=C1CCC1C2C(O)CC2(C)C(O)CCC12 (centres undefined)
- T/C [10]: 73 % of control
- T/C (dose: 100.0 mg/kg/injection, schedule: Q01DX011 (sc), vehicle: steriod suspending solution): 97 % of control
- T/C (dose: 300.0 mg/kg/injection, schedule: Q01DX011 (sc), vehicle: steriod suspending solution): 84 % of control

Compound: Cn1c(=O)c2[nH]c(CCl)nc2n(C)c1=O
- T/C [7]: 86 % of control

Compound: C[C@]12C=CC(=O)C=C1CC[C@@H]1[C@@H]2[C@@H](O)C[C@@]2(C)[C@H]1CC[C@]2(O)C(=O)COC(=O)CCC1CCCC1
- T/C (dose: 3.1 mg/kg/injection, schedule: Q01DX011 (sc), vehicle: steriod suspending solution): 64 % of control
- T/C (dose: 6.25 mg/kg/injection, schedule: Q01DX011 (sc), vehicle: steriod suspending solution): 43 % of control
- T/C (dose: 6.25 mg/kg/injection, schedule: Q01DX011 (sc), vehicle: water): 47 % of control
- T/C (dose: 12.5 mg/kg/injection, schedule: Q01DX011 (sc), vehicle: steriod suspending solution): 34 % of control
- T/C (dose: 12.5 mg/kg/injection, schedule: Q01DX011 (sc), vehicle: water): 32 % of control
- T/C [10]: 22 % of control
- T/C (dose: 25.0 mg/kg/injection, schedule: Q01DX011 (sc), vehicle: water): 12 % of control
- T/C (dose: 50.0 mg/kg/injection, schedule: Q01DX011 (sc), vehicle: steriod suspending solution): 13 % of control
